Assay results published in publication PMC4506529 (Chemmedchem, 2014).

Columns and labels:
[1] = target: human C-terminal DNMT3A (a.a. 623-908) (Homo sapiens, UniProt Q9Y6K1); assay: DNMT3A restriction-based fluorescence enzyme inhibition assay; format: biochemical; details: for inhibition at 20 µM / inhibition at 10 µM / inhibition at 32 µM: read-out: Inhibition [%] of DNMT3A catalytic activity; for Inhibition [%] of DNMT3A catalytic activity: mean±SEM where given, otherwise single determination
human C-terminal DNMT3A (a.a. 623-908), sequence (Q9Y6K1 627-912): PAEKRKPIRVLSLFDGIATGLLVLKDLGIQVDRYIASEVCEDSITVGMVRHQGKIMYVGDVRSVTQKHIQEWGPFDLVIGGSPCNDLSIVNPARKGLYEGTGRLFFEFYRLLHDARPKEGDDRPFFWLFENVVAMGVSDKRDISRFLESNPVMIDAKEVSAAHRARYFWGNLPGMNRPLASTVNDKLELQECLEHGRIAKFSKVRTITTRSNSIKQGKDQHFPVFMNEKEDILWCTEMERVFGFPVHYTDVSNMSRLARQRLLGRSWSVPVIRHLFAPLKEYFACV

[2] = test system: luciferase reporter under control of methylated CMV promoter in KG-1 cells; assay: CMV-luc reexpression in KG-1 cells; format: cell-based, human; details: 24 h; for Fold reactivation of luciferase (CMV-luc): vs untreated cells, mean±SEM
DNMT1 = details: compared with SGI-1027; cited from earlier work
hDNMT1 = hDNMT1 (Homo sapiens, UniProt P26358); assay: DNMT1 [methyl-3H]SAM FlashPlate assay; format: biochemical
hDNMT1, sequence (P26358 whole entry): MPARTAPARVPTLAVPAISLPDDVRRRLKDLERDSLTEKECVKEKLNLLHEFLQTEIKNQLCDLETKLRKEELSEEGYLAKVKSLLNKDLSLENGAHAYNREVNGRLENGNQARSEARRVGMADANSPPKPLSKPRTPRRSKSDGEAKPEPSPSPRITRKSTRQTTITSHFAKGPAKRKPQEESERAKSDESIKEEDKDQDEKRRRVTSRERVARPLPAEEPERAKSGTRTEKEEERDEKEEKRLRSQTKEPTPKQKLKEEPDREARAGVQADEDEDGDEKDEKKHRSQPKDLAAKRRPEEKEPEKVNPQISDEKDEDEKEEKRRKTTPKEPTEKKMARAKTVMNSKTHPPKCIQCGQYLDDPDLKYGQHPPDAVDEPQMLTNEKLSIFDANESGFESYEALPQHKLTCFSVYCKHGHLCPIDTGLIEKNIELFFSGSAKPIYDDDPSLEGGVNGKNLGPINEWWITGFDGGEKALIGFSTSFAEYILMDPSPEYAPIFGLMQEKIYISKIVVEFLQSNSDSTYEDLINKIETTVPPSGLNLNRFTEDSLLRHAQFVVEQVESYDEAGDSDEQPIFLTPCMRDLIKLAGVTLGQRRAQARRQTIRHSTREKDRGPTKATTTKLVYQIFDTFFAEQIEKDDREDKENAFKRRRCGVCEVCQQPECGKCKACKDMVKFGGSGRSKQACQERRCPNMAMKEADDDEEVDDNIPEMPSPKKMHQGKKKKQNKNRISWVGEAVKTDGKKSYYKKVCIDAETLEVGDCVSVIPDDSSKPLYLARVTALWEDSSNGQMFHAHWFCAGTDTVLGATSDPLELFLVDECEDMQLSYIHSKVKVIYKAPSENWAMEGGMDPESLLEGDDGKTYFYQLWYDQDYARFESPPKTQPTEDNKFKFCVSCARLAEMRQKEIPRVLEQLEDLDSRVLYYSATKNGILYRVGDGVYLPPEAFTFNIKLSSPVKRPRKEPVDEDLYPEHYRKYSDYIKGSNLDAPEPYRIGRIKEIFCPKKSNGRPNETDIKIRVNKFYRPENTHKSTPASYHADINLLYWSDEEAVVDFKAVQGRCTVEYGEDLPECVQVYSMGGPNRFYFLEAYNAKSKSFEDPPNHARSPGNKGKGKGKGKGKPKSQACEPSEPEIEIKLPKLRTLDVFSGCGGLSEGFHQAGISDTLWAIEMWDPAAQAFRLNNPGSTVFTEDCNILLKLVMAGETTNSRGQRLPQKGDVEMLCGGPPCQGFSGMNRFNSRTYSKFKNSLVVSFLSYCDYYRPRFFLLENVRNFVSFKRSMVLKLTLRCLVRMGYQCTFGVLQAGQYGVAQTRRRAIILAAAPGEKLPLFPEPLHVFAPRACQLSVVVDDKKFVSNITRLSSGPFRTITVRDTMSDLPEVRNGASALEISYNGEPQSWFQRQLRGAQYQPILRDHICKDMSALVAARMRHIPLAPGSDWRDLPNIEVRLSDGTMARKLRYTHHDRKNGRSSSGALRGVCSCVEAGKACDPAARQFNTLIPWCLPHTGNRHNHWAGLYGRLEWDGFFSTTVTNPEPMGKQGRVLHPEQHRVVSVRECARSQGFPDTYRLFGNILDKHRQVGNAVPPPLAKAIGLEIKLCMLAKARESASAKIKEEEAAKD

[3] = target: T1, histone lysine methyltransferases G9a (Homo sapiens, UniProt Q96KQ7); assay: G9A inhibition assay; format: biochemical
T1 sequence (Q96KQ7 1-1210): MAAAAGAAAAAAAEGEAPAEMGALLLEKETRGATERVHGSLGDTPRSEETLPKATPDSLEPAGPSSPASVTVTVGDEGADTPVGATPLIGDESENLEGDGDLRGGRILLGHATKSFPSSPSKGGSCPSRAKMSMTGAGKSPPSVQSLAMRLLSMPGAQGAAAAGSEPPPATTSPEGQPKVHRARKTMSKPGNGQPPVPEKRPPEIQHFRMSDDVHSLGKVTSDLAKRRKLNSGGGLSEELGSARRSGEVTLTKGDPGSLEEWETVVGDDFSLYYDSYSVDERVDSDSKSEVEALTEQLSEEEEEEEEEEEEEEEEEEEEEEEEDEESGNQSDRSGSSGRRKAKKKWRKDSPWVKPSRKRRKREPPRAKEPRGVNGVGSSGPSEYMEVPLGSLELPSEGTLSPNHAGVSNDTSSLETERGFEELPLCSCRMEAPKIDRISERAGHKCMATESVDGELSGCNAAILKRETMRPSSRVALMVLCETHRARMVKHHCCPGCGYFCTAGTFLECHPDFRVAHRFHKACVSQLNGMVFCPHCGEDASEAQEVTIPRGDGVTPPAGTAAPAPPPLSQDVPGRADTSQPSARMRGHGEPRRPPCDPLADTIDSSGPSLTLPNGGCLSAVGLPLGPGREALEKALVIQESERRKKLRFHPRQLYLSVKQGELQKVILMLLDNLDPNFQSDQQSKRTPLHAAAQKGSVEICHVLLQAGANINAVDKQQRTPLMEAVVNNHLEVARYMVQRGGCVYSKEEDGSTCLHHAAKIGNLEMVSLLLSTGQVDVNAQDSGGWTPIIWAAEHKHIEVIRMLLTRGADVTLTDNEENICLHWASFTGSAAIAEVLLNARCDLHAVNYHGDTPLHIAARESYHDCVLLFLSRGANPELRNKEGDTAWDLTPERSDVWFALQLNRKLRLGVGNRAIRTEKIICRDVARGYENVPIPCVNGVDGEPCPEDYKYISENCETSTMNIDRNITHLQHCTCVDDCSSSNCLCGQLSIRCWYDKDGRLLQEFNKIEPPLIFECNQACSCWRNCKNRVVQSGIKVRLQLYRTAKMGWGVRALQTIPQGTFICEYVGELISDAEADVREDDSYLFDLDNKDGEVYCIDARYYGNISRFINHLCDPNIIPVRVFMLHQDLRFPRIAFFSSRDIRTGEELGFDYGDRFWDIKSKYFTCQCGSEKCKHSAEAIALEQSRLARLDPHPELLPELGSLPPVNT

Compound	inhibition at 10 µM [1]	inhibition at 32 µM [1]	other results
Cc1cc(Nc2ccc(NC(=O)c3ccc([N+](=O)[O-])cc3)cc2)nc(N)n1 [Compound 8, N-[4-(2-Amino-6-methylpyrimidin-4-ylamino)phenyl]-4-nitrobenzamide]	–	–	inhibition at 20 µM [1]: 1%
Cc1cc(Nc2ccc(NC(=O)c3ccc(N)cc3)cc2)nc(N)n1 [Compound 9, N-[4-(2-Amino-6-methylpyrimidin-4-ylamino)phenyl]-4-aminobenzamide]	–	–	inhibition at 20 µM [1]: 0%
Cc1cc(Nc2ccc(NC(=O)c3ccc(Nc4ccncc4)cc3)cc2)nc(N)n1 [Compound 10, N-[4-(2-Amino-6-methylpyrimidin-4-ylamino)phenyl]-4-(pyridin-4-ylamino)benzamide]	32%	91 ± 4%	EC50 [1]: 13 µM
Cc1cc(Nc2ccc(NC(=O)c3ccc(Nc4ncccn4)cc3)cc2)nc(N)n1 [Compound 11, N-[4-(2-Amino-6-methylpyrimidin-4-ylamino)-phenyl]-4-(pyrimidin-2-ylamino)benzamide]	17%	65 ± 3%	–
COc1nc(Nc2ccc(C(=O)Nc3ccc(Nc4cc(C)nc(N)n4)cc3)cc2)nc(OC)n1 [Compound 13, N-[4-(2-Amino-6-methylpyrimidin-4-ylamino)phenyl]-4-(4,6-dimethoxy-1,3,5-triazin-2-ylamino)benzamide]	36%	35%	–
Cc1cc(Nc2ccc(NC(=O)c3ccc(Nc4ncnc5ccccc45)cc3)cc2)nc(N)n1 [Compound 14, N-[4-(2-Amino-6-methylpyrimidin-4-ylamino)phenyl]-4-(quinazolin-4-ylamino)benzamide]	25%	19%	–
Cc1cc(Nc2ccc(NC(=O)c3ccc(Nc4ncnc5cc(F)ccc45)cc3)cc2)nc(N)n1 [Compound 15, N-[4-(2-Amino-6-methylpyrimidin-4-ylamino)phenyl]-4-(7-fluoroquinazolin-4-ylamino)benzamide]	19%	6%	–
Cc1cc(Nc2ccc(NC(=O)c3ccc(Nc4cc(-c5ccccc5)nc5ccccc45)cc3)cc2)nc(N)n1 [Compound 16, N-[4-(2-Amino-6-methylpyrimidin-4-ylamino)phenyl]-4-(2-phenylquinolin-4-ylamino)benzamide]	81 ± 5%	55 ± 10%	Fold reactivation of luciferase (CMV-luc) ([2]; 0.1 μM): 1.0±0.1 fold; Fold reactivation of luciferase (CMV-luc) ([2]; 1 μM): 1.3±0.1 fold; Fold reactivation of luciferase (CMV-luc) ([2]; 3.2 μM): 5.5±1.3 fold; Fold reactivation of luciferase (CMV-luc) ([2]; 5 μM): 6.0±2.0 fold; Fold reactivation of luciferase (CMV-luc) ([2]; 10 μM): 6.1±2.7 fold; EC50 [1]: 1.6 µM
Cc1cc(Nc2ccc(NC(=O)c3ccc(Nc4ncnc5nc[nH]c45)cc3)cc2)nc(N)n1 [Compound 17, N-[4-(2-Amino-6-methylpyrimidin-4-ylamino)phenyl]-4-(7H-purin-6-ylamino)benzamide]	8%	–	inhibition at 20 µM [1]: 3%
N-[4-(2-Amino-6-methylpyrimidin-4-ylamino)-phenyl]-4-(pyridin-4-ylmethylamino)benzamide [Compound 25]	–	–	Inhibition [%] of DNMT3A catalytic activity ([1]; 10 μM compound): 0%; Inhibition [%] of DNMT3A catalytic activity ([1]; 32 μM compound): 4%
N-[4-(2-Amino-6-methylpyrimidin-4-ylamino)phenyl]-4-(pyridin-3-ylmethylamino)benzamide [Compound 24]	–	–	Inhibition [%] of DNMT3A catalytic activity ([1]; 10 μM compound): 0%

Now from value to compound, other results behind:

inhibition at 10 µM [1]	inhibition at 32 µM [1]	Compound	other results
0%	–	CNc1ccc(C(=O)Nc2ccc(Nc3cc(C)nc(N)n3)cc2)cc1 [Compound 23, N-[4-(2-Amino-6-methylpyrimidin-4-ylamino)phenyl]-4-(methylamino)benzamide]	inhibition at 20 µM [1]: 0%
56 ± 11%	47 ± 1%	Cc1cc(Nc2ccc(C(=O)Nc3ccc(Nc4ccnc5ccccc45)cc3)cc2)nc(N)n1 [Compound 30, N-[4-(Quinolin-4-ylamino)phenyl]-4-(2-amino-6-methylpyrimidin-4-ylamino)benzamide]	DNMT1 degradation (in words) (DNMT1): lower efficiency on DNMT1 degradation than SGI-1027
73 ± 3%	75 ± 8%	O=C(Nc1ccc(Nc2ccnc3ccccc23)cc1)c1ccc(Nc2ccncc2)cc1 [Compound 31, N-[4-(Quinolin-4-ylamino)phenyl]-4-(pyridin-4-ylamino)benzamide]	EC50 (hDNMT1): 15 ± 3 µM; IC50 [3]: 28 ± 4 µM; Fold reactivation of luciferase (CMV-luc) ([2]; 0.1 μM): 1.1±0.1 fold; Fold reactivation of luciferase (CMV-luc) ([2]; 0.32 μM): 1.3±0.2 fold; Fold reactivation of luciferase (CMV-luc) ([2]; 0.5 μM): 1.6±0.3 fold; Fold reactivation of luciferase (CMV-luc) ([2]; 1 μM): 2.0±0.2 fold; Fold reactivation of luciferase (CMV-luc) ([2]; 3.2 μM): 3.9±0.3 fold; Fold reactivation of luciferase (CMV-luc) ([2]; 5 μM): 3.9±0.1 fold; Fold reactivation of luciferase (CMV-luc) ([2]; 10 μM): 3.2±0.5 fold; concentration from which luciferase expression was reactivated [2]: ≥ 1 µM; EC50 [1]: 0.9 µM; efficacy of hDNMT3A inhibition ([1]; maximal efficacy of the dose–response curve): 90%
53 ± 8%	53 ± 13%	Nc1cc(Nc2ccc(C(=O)Nc3ccc(Nc4ccnc5ccccc45)cc3)cc2)nc(N)n1 [Compound 32, N-[4-(Quinolin-4-ylamino)phenyl]-4-(2,6-diaminopyrimidin-4-ylamino)benzamide]	plateau of DNMT3A inhibition ([1]; plateau between 32 and 1 μM, no dose–response curve (data not shown)): 50%
29%	46%	O=C(Nc1ccc(Nc2ccnc3ccccc23)cc1)c1ccc(Nc2cc(-c3ccccc3)nc3ccccc23)cc1 [Compound 33, N-[4-(Quinolin-4-ylamino)phenyl]-4-(2-phenylquinolin-4-ylamino)benzamide]	–
18%	54 ± 5%	O=C(Nc1ccc(Nc2ccncc2)cc1)c1ccc(Nc2ccncc2)cc1 [Compound 36, N-[4-(Pyridin-4-ylamino)phenyl]-4-(pyridin-4-ylamino)benzamide]	–
39%	29%	O=C(Nc1ccc(Nc2ccnc3ccccc23)cc1)c1ccc(Nc2ccnc3ccccc23)cc1 [Compound 37, N-[4-(Quinolin-4-ylamino)phenyl]-4-(quinolin-4-ylamino)benzamide]	–
48 ± 8%	62 ± 22%	O=C(Nc1ccc(Nc2c3ccccc3nc3ccccc23)cc1)c1ccc(Nc2c3ccccc3nc3ccccc23)cc1 [Compound 38, N-[4-(Acridin-9-ylamino)phenyl]-4-(acridin-9-ylamino)benzamide]	–
74 ± 5%	76 ± 5%	Cc1cc(Nc2ccc(NC(=O)c3ccc(Nc4ccnc5ccccc45)cc3)cc2)nc(N)n1 [SGI-1027, N-(4-(2-amino-6-methylpyrimidin-4-ylamino)phenyl)-4-(quinolin-4-ylamino)benzamide, reference compound]	–
